AUC(0-t), Papp A→B and concentration data for two compounds are collected here from ChEMBL document CHEMBL3352074, “Novel ROCK inhibitors for the treatment of pulmonary arterial hypertension” (Bioorg Med Chem Lett, 2014).

A short description of series [1]: AUC (0 to 6 hrs) in mouse plasma at 1 mg/kg, it. The note with it: inhaled or intranasal. More on the design: time < 6 hr, dose 1 mg/kg, route endotracheal. The series is classed as ADME, organism-based.
Series [2] is described as follows: AUC (0 to 6 hrs) in mouse lung at 1 mg/kg, it. The series is classed as ADME, organism-based. More on the design: time < 6 hr, dose 1 mg/kg, route endotracheal. The conditions noted are these: inhaled or intranasal.
Series [3] can be described thus: Apparent permeability from apical to basolateral side across human Caco2 cells. The series is classed as ADME, cell-based. The note with it: Caco-2. A general note: Caco-2 monolayers are a common model of the intestinal barrier.
Series [4] is described as follows: AUC (0 to 6 hrs) in mouse plasma at 1 mg/kg, iv. In kind it is ADME, organism-based. More on the design: time < 6 hr, dose 1 mg/kg, route intravenous.
The nature of series [5]: AUC (0 to 6 hrs) in mouse lung at 1 mg/kg, iv. The series is classed as ADME, organism-based. Also noted: time < 6 hr, dose 1 mg/kg, route intravenous.
The nature of series [6]: Plasma concentration in Balb/C mouse at 1 mg/kg, iv after 0.5 hrs. The series is classed as ADME, organism-based. More on the design: dose 1 mg/kg, route intravenous.
A short description of series [7]: Plasma concentration in Balb/C mouse at 1 mg/kg, it after 0.5 hrs. In kind it is ADME, organism-based. Also noted: dose 1 mg/kg, route endotracheal. The conditions noted are these: inhaled or intranasal.
Series [8] can be described thus: Drug concentration in Balb/C mouse lung at 1 mg/kg, iv after 0.5 hrs. In kind it is ADME, organism-based. More on the design: dose 1 mg/kg, route intravenous. The conditions noted are these: read-out: Drug uptake.
Series [9] is described as follows: Plasma concentration in Balb/C mouse at 1 mg/kg, it after 3 hrs. The series is classed as ADME, organism-based. Also noted: dose 1 mg/kg, route endotracheal. The note with it: inhaled or intranasal.
A short description of series [10]: Drug concentration in Balb/C mouse lung at 1 mg/kg, it after 0.5 hrs. In kind it is ADME, organism-based. Also noted: dose 1 mg/kg, route endotracheal. The conditions noted are these: inhaled or intranasal, read-out: Drug uptake.
Series [11] in a line: Drug concentration in Balb/C mouse lung at 1 mg/kg, it after 3 hrs. The series is classed as ADME, organism-based. More on the design: dose 1 mg/kg, route endotracheal. The conditions noted are these: inhaled or intranasal, read-out: Drug uptake.
The nature of series [12]: Plasma concentration in Balb/C mouse at 1 mg/kg, iv after 3 hrs. More on the design: dose 1 mg/kg, route intravenous. In kind it is ADME, organism-based.
Series [13] can be described thus: Drug concentration in Balb/C mouse lung at 1 mg/kg, iv after 3 hrs. The series is classed as ADME, organism-based. Also noted: dose 1 mg/kg, route intravenous. The note with it: read-out: Drug uptake.

On to `c1ccc2c(N3CCNCC3)nc(-c3ccc4[nH]ncc4c3)nc2c1`, for which the AUC(0-t) – broadly, the area under the concentration-time curve up to a stated or last time point – at 6 h in series [1] is 0.665 µM·h; in series [2], 9.31 µM·h; in [4], 0.642 µM·h; in series [5] it was 5.92 µM·h. Moreover, the Papp A→B (usually the apparent permeability from the apical to the basolateral side of a cell layer) in series [3] turned out to be 5.65 ×10⁻⁶ cm/s.
Consider `c1cc2c(N3CCNCC3)nc(-c3ccc4[nH]ncc4c3)nc2cn1`, for which the AUC(0-t) at 6 h in [1] came to 0.302 µM·h; in series [2], 16 µM·h; in [4], 0.372 µM·h; in [5], 3.01 µM·h. Also, the concentration at 0.5 h was found to be 400 nM in [6], 500 nM in series [7], 2000 nM in [8] and 32500 nM in series [10]. Besides, the concentration at 3 h stood at 20 nM in series [9], 1900 nM in series [11], 10 nM in series [12] and 200 nM in series [13].
